Laboratory results from patent US10233186B2, “Inhibitors of activin receptor-like kinase” (BLUEPRINT MEDICINES CORPORATION, priority 2016, dated 2019).

Experiments:
[1] = biological target: T1, ALK2 R206H (GST-tagged mutant ALK2) (Homo sapiens, UniProt Q04771, R206H); assay: ALK binding assay (LANTHASCREEN TR-FRET competitive binding, displacement of Kinase Tracer 178); conditions: ALK2 R206H, LANTHASCREEN TR-FRET competitive binding; read-out: Binding Assay (IC50)
T1 construct: purchased Carna Bioscience or ThermoFisher 09-148 or PV6232
T1 sequence (Q04771 21-509 R206H): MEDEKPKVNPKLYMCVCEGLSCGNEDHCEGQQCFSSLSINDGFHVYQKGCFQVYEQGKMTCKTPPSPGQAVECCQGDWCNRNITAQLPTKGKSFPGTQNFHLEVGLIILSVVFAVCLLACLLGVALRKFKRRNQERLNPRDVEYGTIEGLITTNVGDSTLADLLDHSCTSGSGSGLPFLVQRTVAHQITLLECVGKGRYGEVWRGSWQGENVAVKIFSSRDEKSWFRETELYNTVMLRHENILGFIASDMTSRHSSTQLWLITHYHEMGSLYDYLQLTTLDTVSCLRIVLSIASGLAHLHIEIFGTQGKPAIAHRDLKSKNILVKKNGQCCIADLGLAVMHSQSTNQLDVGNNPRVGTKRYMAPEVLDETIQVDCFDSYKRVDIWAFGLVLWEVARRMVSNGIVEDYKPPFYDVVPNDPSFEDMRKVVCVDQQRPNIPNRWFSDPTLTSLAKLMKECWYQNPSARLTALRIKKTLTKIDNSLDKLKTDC

[2] = biological target: T2, human ALK2 R206H (Homo sapiens, UniProt Q04771, R206H); assay: Cell-based ALK2-R206H cell activity assay (Smad1-Ser463/Ser465 phosphorylation by AlphaLISA in HEK293-ALK2-R206H cells); conditions: read-out: Cell Line (Cell Assay IC50)
T2 construct: expressed in transfected cells; host or cells: HEK293 (ATCC CRL1573), lentivirus transduction, blasticidin selection
T2 sequence (Q04771 21-509 R206H): T1 sequence (Q04771 21-509 R206H)
In short: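 Stable HEK293 cells expressing C-terminally FLAG-tagged human ALK2 R206H (lentiviral, blasticidin-selected) were treated with compounds in 10-point, 3-fold dilutions from 10 μM or 1 μM top, in duplicate. Smad1 Ser463/Ser465 phosphorylation was read by AlphaLISA.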

| Compound | IC50 [1] | IC50 [2] |
| --- | --- | --- |
| CC(C)NC(=O)N1CCN(c2ccnn3cc(-c4ccc([C@@]5(C)CN(C(C)C)CCN5)cc4)cc23)CC1 [Compound 633] | < 10 nM | < 100 nM |
| CCOC1(c2ccc(-c3cc4c(N5CCN(C(=O)NC(C)C)CC5)ccnn4c3)cc2)CCN(C(C)C)CC1 [Compound 712] | < 10 nM | < 100 nM |
| CCNC(=O)N1CCN(c2ccnn3cc(-c4ccc([C@@H]5CCN(C(C)C)C5)cn4)cc23)CC1 [Compound 495] | < 10 nM | < 100 nM |
| CCOC1(c2ccc(-c3cc4c(N5CCN(C(=O)OC6(C)COC6)CC5)ccnn4c3)nc2)CCN(C(C)C)CC1 [Compound 878] | < 10 nM | < 100 nM |
| CO[C@@]1(c2ccc(-c3cc4c(N5CCN(C(=O)OC6COC6)CC5)ccnn4c3)cc2)CCCNC1 [Compound 600] | < 10 nM | < 100 nM |
| COC1(c2ccc(-c3cc4c(N5CCN(C(=O)C6CC6)CC5)ccnn4c3)cc2)CN(C(C)C)C1 [Compound 521] | < 10 nM | < 100 nM |
| CO[C@@]1(c2ccc(-c3cc4c(N5CCN(C(=O)NC(C)C)CC5)ccnn4c3)nc2)CCCNC1 [Compound 786] | < 10 nM | < 100 nM |
| CCOC(=O)N1CCN(c2ccnn3cc(-c4ccc([C@@]5(C)CN(C(C)C)CCN5C)cc4)cc23)CC1 [Compound 642] | < 10 nM | < 100 nM |
| CCN1CC2(C1)CN(c1ccc(-c3cc4c(N5CCN(C(=O)C6CC6)CC5)ccnn4c3)cc1)C2 [Compound 241] | < 10 nM | < 100 nM |
| CCOC(=O)N1CCN(c2ccnn3cc(-c4ccc(C5CCN(C(C)C)CC5)cc4Cl)cc23)CC1 [Compound 651] | < 10 nM | < 100 nM |
| CO[C@]1(c2ccc(-c3cc4c(N5CCN(C(=O)OC6COC6)CC5)ccnn4c3)cc2)CCCNC1 [Compound 601] | < 10 nM | < 100 nM |
| CC(C)N1CCC[C@H](c2ccc(-c3cc4c(N5CCN(C(=O)[C@H]6CC[C@H](C#N)CC6)CC5)ccnn4c3)cc2)C1 [Compound 435] | < 10 nM | < 100 nM |
| COC1(c2ccc(-c3cc4c(N5CCN(C(=O)OC6COC6)CC5)ccnn4c3)cc2)CCN([C@H](C)COC(F)F)CC1 [Compound 897] | < 10 nM | < 100 nM |
| CCNC(=O)N1CCN(c2ccnn3cc(-c4ccc(N5CCNCC5)cc4)cc23)CC1 [Compound 140] | < 10 nM | < 100 nM |
| CCN1CCC(c2ccc(-c3cc4c(N5CCN(C(=O)[C@H]6C[C@@H]6C)CC5)ccnn4c3)cc2)C1 (stereo partly shown) [Compound 208] | < 10 nM | < 100 nM |
| CC(C)N1CCN(C)C(c2ccc(-c3cc4c(N5CCN(C(=O)C6CC6)CC5)ccnn4c3)cc2)C1 (stereo not shown) [Compound 566] | < 10 nM | < 100 nM |
| C[C@@H]1CN(c2ccnn3cc(-c4ccc(N5CCNCC5)cc4)cc23)CCN1C(=O)C1CC1 [Compound 152] | < 10 nM | < 100 nM |
| CC(C)N1CC[C@@](O)(c2ccc(-c3cc4c(N5CCN(C(=O)C6CC6)CC5)ccnn4c3)cc2)C1 [Compound 523] | < 10 nM | < 100 nM |
| CCN1CCC(c2ccc(-c3cc4c(N5CCN(C(=O)C6CCC(C)(O)CC6)CC5)ccnn4c3)cc2)CC1 (stereo not shown) [Compound 431] | < 10 nM | 100 to 500 nM |
| O=C(C1CC1)N1CCN(c2ccnn3cc(-c4ccc(C5=NCCN5)cc4)cc23)CC1 [Compound 111, cyclopropyl(4-(6-(4-(4,5-dihydro-1H-imidazol-2-yl)phenyl)pyrrolo[1,2-b]pyridazin-4-yl)piperazin-1-yl)methanone] | < 10 nM | 100 to 500 nM |
| CC(C)N1CCN(c2ccc(-c3cc4c(N5CCN(C(=O)[C@H]6C[C@H]6F)CC5)ccnn4c3)cc2)CC1 [Compound 350] | < 10 nM | < 100 nM |
| O=C(C1CC1)N1CCN(c2ccnn3cc(-c4ccc(C56CCN(CC5)CC6)cc4)cc23)CC1 [Compound 482] | < 10 nM | < 100 nM |
| CO[C@]1(c2ccc(-c3cc4c(N5CCN(C(=O)C6CC6)CC5)ccnn4c3)cc2)CCN(C(C)C)C1 [Compound 572] | < 10 nM | < 100 nM |
| COC1(c2ccc(-c3cc4c(N5CCN(C(=O)OC6COC6)CC5)ccnn4c3)cc2)CCN(C(C)C)CC1 [Compound 713] | < 10 nM | < 100 nM |
| CC(C)NC(=O)N1CCN(c2ccnn3cc(-c4ccc(C5(C)CCN(C(C)C)CC5)cc4)cc23)CC1 [Compound 628] | < 10 nM | < 100 nM |
| CCOC(=O)N1CCN(c2ccnn3cc(-c4ccc(C5(OC)CCNC(C)(C)C5)cn4)cc23)CC1 (stereo not shown) [Compound 802] | < 10 nM | < 100 nM |
